Assay results published in publication PMC9728238, “Heterologous Expression of Recombinant Transglutaminase in Bacillus subtilis SCK6 with Optimized Signal Peptide and Codon, and Its Impact on Gelatin Properties” (Journal of Microbiology and Biotechnology, 2020).
Where a SMILES comes first, the peptide text is derived from it. The star is where a group is joined. Cbz = O=C(OCc1ccccc1)*

Molecular target: T1, MTG (recombinant microbial transglutaminase, TGase) (Streptomyces sp., UniProt A0A6H0XHW2)
T1 construct: pro-mature gene (1,149 bp) without native signal peptide, codon-optimized, behind B. subtilis YncM signal peptide; secreted by Bacillus subtilis SCK6; purified mature enzyme, 38 kDa; no tag told
T1 sequence (A0A6H0XHW2 80-410): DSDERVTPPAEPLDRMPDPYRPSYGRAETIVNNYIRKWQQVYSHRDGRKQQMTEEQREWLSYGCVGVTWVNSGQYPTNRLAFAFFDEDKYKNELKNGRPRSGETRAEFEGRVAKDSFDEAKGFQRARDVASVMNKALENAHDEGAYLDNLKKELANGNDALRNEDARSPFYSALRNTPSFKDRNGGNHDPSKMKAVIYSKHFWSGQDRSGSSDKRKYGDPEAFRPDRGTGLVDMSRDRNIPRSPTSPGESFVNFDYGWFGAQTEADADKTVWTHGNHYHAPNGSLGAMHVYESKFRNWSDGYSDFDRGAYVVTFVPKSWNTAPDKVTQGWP
Experiment: hydroxamate assay ([…] nm), Lineweaver-Burk plot
Type: biochemical
Settings: CBZ-Gln-Gly 5 to 30 mmol/l; pH 6.0; 37 °C; co-substrate hydroxylamine 100 mM, glutathione 10 mM; unit as printed (presumably μmol/ml)

SMILES: NC(=O)CC[C@H](NC(=O)OCc1ccccc1)C(=O)NCC(=O)O [CBZ-Gln-Gly] (Cbz-Gln-Gly-OH)
- Km: 16.93 μM/ml
